Measured values from BindingDB's records for doi:10.1021/jm00017a010 (Sapienza University of Rome, 1995).

biological target: T1, Gag-Pol polyprotein [588-1027]/[588-1147] (Human immunodeficiency virus 1, UniProt P04585); assay: HIV-1 RT Assay; conditions: not given
T1 construct: 588-1027; 588-1147
Source text: The IC50 of reverse transcriptase is the concentration that inhibits 50% of recombinant HIV-1 RT RNA-directed DNA polymerase activity in vitro.

| SMILES | IC50 |
| --- | --- |
| CC1(C)C(=O)NC(SC2CCCC2)=N/C1=C/c1ccccc1 [(6E)-2-(cyclopentylsulfanyl)-5,5-dimethyl-6-(phenylmethylidene)-3,4,5,6-tetrahydropyrimidin-4-one] | > 10 µM |
| CC1(C)C(=O)NC(SC2CCCCC2)=N/C1=C/c1ccccc1 [S-DABO] | > 10 µM |

same assay, conditions: pH 7.8; 37 °C

| SMILES | IC50 |
| --- | --- |
| Cc1cccc(Cc2nc(S)nc(O)c2C)c1 [4-Hydroxy-2-mercapto-5-methyl-6-(3-methylbenzyl)pyrimidine] | > 10 µM |
| Cc1cccc(Cc2cc(=O)[nH]c(=S)[nH]2)c1 [6-[(3-methylphenyl)methyl]-2-sulfanylidene-1,2,3,4-tetrahydropyrimidin-4-one] | > 10 µM |
| Cc1c(O)nc(S)nc1Cc1ccccc1 [6-benzyl-4-hydroxy-2-mercapto-5-methylpyrimidine] | > 10 µM |
| CC(C)Sc1nc(Cc2ccccc2)cc(=O)[nH]1 [S-DABO] | > 10 µM |
| CSc1nc(Cc2ccccc2)cc(=O)[nH]1 [S-DABO] | > 10 µM |
| CSc1nc(O)cc(Cc2cccc(C)c2)n1 [S-DABO] | > 10 µM |
